Several values for one entry are separate records, joined by “and”; a condition that tells them apart may be missing. Equal values may be shown once. Inconclusive results and toxic doses are left out.
Tested on: BDF1 mice, P388 leukemia ip, median survival T/C
Assay: NCI In Vivo Anticancer Drug Screen. Data for tumor model P388 Leukemia (intraperitoneal) in B6D2F1 (BDF1) mice
Settings: endpoint: median survival time, higher = longer survival
Method in brief: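 Survival ratio, drug arm over vehicle arm, in mice with a transplanted tumour.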

[1] = dose: 25.0 mg/kg/injection, schedule: Q01DX009 (ip), vehicle: saline with Tween-80
[2] = dose: 50.0 mg/kg/injection, schedule: Q01DX009 (ip), vehicle: saline with Tween-80
[3] = dose: 100.0 mg/kg/injection, schedule: Q01DX009 (ip), vehicle: saline with Tween-80
[4] = dose: 100.0 mg/kg/injection, schedule: Q04DX003 (ip), vehicle: saline with Tween-80
[5] = dose: 200.0 mg/kg/injection, schedule: Q01DX009 (ip), vehicle: saline with Tween-80
[6] = dose: 200.0 mg/kg/injection, schedule: Q04DX003 (ip), vehicle: saline with Tween-80
[7] = dose: 400.0 mg/kg/injection, schedule: Q01DX009 (ip), vehicle: saline with Tween-80
[8] = dose: 400.0 mg/kg/injection, schedule: Q04DX003 (ip), vehicle: saline with Tween-80
[9] = dose: 100.0 mg/kg/injection, schedule: Q04DX003 (ip), vehicle: saline
[10] = dose: 200.0 mg/kg/injection, schedule: Q04DX003 (ip), vehicle: saline
[11] = dose: 400.0 mg/kg/injection, schedule: Q04DX003 (ip), vehicle: saline
[12] = dose: 100.0 mg/kg/injection, schedule: Q01DX009 (ip), vehicle: Klucel (hydroxypropylcellulose) (HPC)
[13] = dose: 50.0 mg/kg/injection, schedule: Q04DX003 (ip), vehicle: saline
[14] = dose: 100.0 mg/kg/injection, schedule: Q01DX009 (ip), vehicle: saline
[15] = dose: 25.0 mg/kg/injection, schedule: Q01DX009 (ip), vehicle: Klucel (hydroxypropylcellulose) (HPC)
[16] = dose: 50.0 mg/kg/injection, schedule: Q01DX009 (ip), vehicle: Klucel (hydroxypropylcellulose) (HPC)

In the case of `CC(C)C(C(=O)c1ccccc1)c1ccccc1` (stereo not given), the T/C [1] is reported as 95 % of control, the T/C [2] is reported as 109 % of control and the T/C [3] is reported as 100 % of control. The T/C [4] was 100 % of control, the T/C [5] was 100 % of control and the T/C [6] was 118 % of control. For the same molecule, the T/C [7] was 100 % of control and the T/C [8] was 100 % of control.

In the case of `COC(=O)C(Cc1ccccc1)NS(=O)(=O)c1ccc(C)cc1` (stereo not given), the T/C (dose: 12.5 mg/kg/injection, schedule: Q01DX005 (ip), vehicle: saline with Tween-80) is reported as 92 % of control, the T/C (dose: 25.0 mg/kg/injection, schedule: Q01DX005 (ip), vehicle: saline with Tween-80) is reported as 90 % of control and the T/C (dose: 50.0 mg/kg/injection, schedule: Q01DX005 (ip), vehicle: saline with Tween-80) is reported as 87 % of control and 92 % of control. For the same molecule, the T/C (dose: 200.0 mg/kg/injection, schedule: Q01DX005 (ip), vehicle: saline with Tween-80) was 111 % of control.

In the case of `CN(C)N=Nc1ccc(-c2ccccc2)cc1`, the T/C [1] is reported as 99 % of control.

In the case of `CNC(=S)/N=C(\N)n1nc(C)cc1C`, the T/C (dose: 15.0 mg/kg/injection, schedule: Q01DX009 (ip), vehicle: saline with Tween-80) is reported as 104 % of control, the T/C (dose: 30.0 mg/kg/injection, schedule: Q01DX009 (ip), vehicle: saline with Tween-80) is reported as 112 % of control and the T/C (dose: 60.0 mg/kg/injection, schedule: Q01DX009 (ip), vehicle: saline with Tween-80) is reported as 112 % of control.

`COc1cc2ccc(CN3CCCC3C(=O)OCc3ccccc3)cc2cc1OC` (stereo not given) was tested, and the T/C [3] was 100 % of control, the T/C [9] was 109 % of control and the T/C [5] was 104 % of control. For the same molecule, the T/C [10] was 118 % of control, the T/C [7] was 116 % of control and the T/C [11] was 100 % of control.

In the case of `O=C1CN(c2ccccc2)CC(=O)N2Cc3ccccc3CN12`, the T/C (dose: 100.0 mg/kg/injection, schedule: Q01DX005 (ip), vehicle: saline with Tween-80) is reported as 101 % of control.

For `Clc1ccccc1-c1ncc2cnccn12`, the T/C (dose: 0.19 mg/kg/injection, schedule: Q01DX009 (ip), vehicle: saline with Tween-80) was 102 % of control, the T/C (dose: 0.39 mg/kg/injection, schedule: Q01DX009 (ip), vehicle: saline with Tween-80) was 102 % of control and the T/C (dose: 0.78 mg/kg/injection, schedule: Q01DX009 (ip), vehicle: saline with Tween-80) was 106 % of control. The T/C (dose: 1.56 mg/kg/injection, schedule: Q01DX009 (ip), vehicle: saline with Tween-80) was 102 % of control, the T/C (dose: 6.25 mg/kg/injection, schedule: Q01DX009 (ip), vehicle: saline with Tween-80) was 99 % of control and 103 % of control and the T/C (dose: 12.5 mg/kg/injection, schedule: Q01DX009 (ip), vehicle: saline with Tween-80) was 86 % of control. For the same molecule, the T/C [1] was 88 % of control, the T/C (dose: 25.0 mg/kg/injection, schedule: Q04DX003 (ip), vehicle: saline with Tween-80) was 115 % of control and the T/C [2] was 86 % of control. The T/C (dose: 50.0 mg/kg/injection, schedule: Q04DX003 (ip), vehicle: saline with Tween-80) was 107 % of control and the T/C [4] was 88 % of control.

For `CC(=N/NC(N)=S)/C(C)=N/NC(N)=S`, the T/C [12] was 100 % of control, the T/C (dose: 200.0 mg/kg/injection, schedule: Q01DX009 (ip), vehicle: Klucel (hydroxypropylcellulose) (HPC)) was 100 % of control and the T/C (dose: 400.0 mg/kg/injection, schedule: Q01DX009 (ip), vehicle: Klucel (hydroxypropylcellulose) (HPC)) was 100 % of control.

With `COc1cc(O)c2c(c1)C(=O)c1cc3c(c(O)c1C2=O)C(OC1OC(C)C(OC)C(O)C1OC)C(OC)C(C)(O)C3=O` (stereo not given) the T/C (dose: 17.5 mg/kg/injection, schedule: Q01DX009 (ip), vehicle: saline) was 86 % of control, the T/C (dose: 35.0 mg/kg/injection, schedule: Q01DX009 (ip), vehicle: saline) was 93 % of control and the T/C [2] was 97 % of control. The T/C (dose: 70.0 mg/kg/injection, schedule: Q01DX009 (ip), vehicle: saline) was 93 % of control, the T/C [3] was 120 % of control and the T/C [5] was 116 % of control.

In the case of `[Cl][Co]([Cl])[Cl].[NH-]CC[N-]CC[NH-]`, the T/C [2] is reported as 109 % of control and the T/C [3] is reported as 109 % of control.

In the case of `CCOC(=O)C(O)(NC(=O)N/N=C/c1ccccc1)C(=O)OCC`, the T/C [4] is reported as 104 % of control, the T/C [6] is reported as 112 % of control and the T/C [8] is reported as 91 % of control.

In the case of `CC(=O)c1ccc(-c2ccccc2)cc1`, the T/C [3] is reported as 100 % of control, the T/C [5] is reported as 91 % of control and the T/C [7] is reported as 95 % of control.

With `CC#CCOCC(O)CCl` (stereo not given) the T/C [13] was 115 % of control, the T/C [14] was 108 % of control and the T/C [9] was 95 % of control. For the same molecule, the T/C (dose: 200.0 mg/kg/injection, schedule: Q01DX009 (ip), vehicle: saline) was 116 % of control, the T/C [10] was 90 % of control and the T/C [11] was 112 % of control.

With `CCOC(=O)Cc1csc(NN=C(C)C)n1` the T/C (dose: 50.0 mg/kg/injection, schedule: Q01DX009 (ip), vehicle: saline) was 108 % of control and the T/C [14] was 110 % of control.

In the case of `Oc1cccc(O)c1`, the T/C (dose: 50.0 mg/kg/injection, schedule: Q01DX010 (ip), vehicle: saline) is reported as 95 % of control and the T/C (dose: 100.0 mg/kg/injection, schedule: Q01DX010 (ip), vehicle: saline) is reported as 91 % of control.

In the case of `c1csc(-c2nc3ccccc3s2)c1`, the T/C [4] is reported as 109 % of control, the T/C [6] is reported as 100 % of control and the T/C [8] is reported as 100 % of control.

`O=C(CSCSCC(=O)Nc1ccc(C2=NCCN2)cc1)Nc1ccc(C2=NCCN2)cc1` was tested, and the T/C (dose: 10.0 mg/kg/injection, schedule: Q01DX009 (ip), vehicle: Klucel (hydroxypropylcellulose) (HPC)) was 91 % of control, the T/C (dose: 12.5 mg/kg/injection, schedule: Q04DX003 (ip), vehicle: saline) was 100 % of control and the T/C [15] was 100 % of control and 115 % of control. For the same molecule, the T/C [16] was 165 % of control, the T/C [13] was 104 % of control and 109 % of control and the T/C (dose: 75.0 mg/kg/injection, schedule: Q04DX003 (ip), vehicle: saline) was 104 % of control. The T/C [12] was 90 % of control, the T/C [9] was 114 % of control and the T/C (dose: 135.0 mg/kg/injection, schedule: Q04DX003 (ip), vehicle: saline) was 157 % of control. The T/C [10] was 157 % of control.

For `NC(CSC(c1ccccc1)(c1ccccc1)c1ccc2ccccc2c1)C(=O)O` (stereo not given), the T/C (dose: 2.75 mg/kg/injection, schedule: Q01DX009 (ip), vehicle: saline) was 173 % of control, the T/C (dose: 4.12 mg/kg/injection, schedule: Q01DX009 (ip), vehicle: saline) was 227 % of control and the T/C (dose: 6.25 mg/kg/injection, schedule: Q01DX009 (ip), vehicle: saline) was 250 % of control. The T/C (dose: 12.5 mg/kg/injection, schedule: Q01DX009 (ip), vehicle: Klucel (hydroxypropylcellulose) (HPC)) was 216 % of control, the T/C (dose: 12.5 mg/kg/injection, schedule: Q01DX009 (ip), vehicle: saline) was 89 % of control and the T/C [15] was 333 % of control. For the same molecule, the T/C (dose: 25.0 mg/kg/injection, schedule: Q04DX003 (ip), vehicle: Klucel (hydroxypropylcellulose) (HPC)) was 210 % of control, the T/C (dose: 29.0 mg/kg/injection, schedule: Q04DX003 (ip), vehicle: saline) was 200 % of control and the T/C (dose: 45.0 mg/kg/injection, schedule: Q04DX003 (ip), vehicle: saline) was 86 % of control. The T/C [16] was 200 % of control, the T/C (dose: 50.0 mg/kg/injection, schedule: Q04DX003 (ip), vehicle: Klucel (hydroxypropylcellulose) (HPC)) was 200 % of control and the T/C [13] was 300 % of control. For the same molecule, the T/C (dose: 66.0 mg/kg/injection, schedule: Q04DX003 (ip), vehicle: saline) was 272 % of control, the T/C (dose: 100.0 mg/kg/injection, schedule: Q04DX003 (ip), vehicle: Klucel (hydroxypropylcellulose) (HPC)) was 300 % of control and the T/C [9] was 300 % of control and 154 % of control. For the same molecule, the T/C [10] was 95 % of control.

With `CCOc1ccc(Nc2c3ccccc3nc3ccccc23)cc1` the T/C (dose: 0.39 mg/kg/injection, schedule: Q01DX009 (ip), vehicle: Klucel (hydroxypropylcellulose) (HPC)) was 110 % of control, the T/C (dose: 0.78 mg/kg/injection, schedule: Q01DX009 (ip), vehicle: Klucel (hydroxypropylcellulose) (HPC)) was 114 % of control and the T/C (dose: 1.56 mg/kg/injection, schedule: Q01DX009 (ip), vehicle: Klucel (hydroxypropylcellulose) (HPC)) was 96 % of control. For the same molecule, the T/C [16] was 159 % of control.

`N#CN=CN1CCN(c2ccccn2)CC1` was tested, and the T/C [2] was 91 % of control, the T/C [3] was 90 % of control and the T/C [5] was 93 % of control.

With `Oc1ccccc1C=NC1CCCCC1.Oc1ccccc1C=NC1CCCCC1.[Co+2]` the T/C (dose: 50.0 mg/kg/injection, schedule: Q01DX001 (ip), vehicle: saline sonified) was 90 % of control, the T/C (dose: 100.0 mg/kg/injection, schedule: Q01DX001 (ip), vehicle: saline sonified) was 109 % of control and the T/C (dose: 200.0 mg/kg/injection, schedule: Q01DX001 (ip), vehicle: saline sonified) was 109 % of control.

Source: PubChem BioAssay AID328 (DTP/NCI, 2004)
